Tests used:
Test in all cases: TAG hydrolase assay, humanized mouse ATGL variants
Type in all cases: biochemical
mouse ATGL N68K = target: T1, mouse ATGL N68K (Mus musculus, UniProt Q8BJ56, N68K); settings: variant N68K, NG-497 (10 μM) or Atglistatin (10 μM)
T1 construct: host or cells: Expi293 cells, cell lysate
Protocol: (§1) Figure 5 Analysis of chimeric proteins comprising human and mouse ATGL. (a) Schematic view of the minimal active domain of wild-type and chimeric ATGL variants (c1–c9). Nonidentical aa are indicated in blue and red for mouse and human ATGL, respectively. ATGL variants were expressed in Expi293 cells and TAG hydrolase activity was determined in cell lysates in the presence or absence of NG-497 (10 μM) and Atglistatin (10 μM), respectively. Inhibition of ATGL variants by respective inhibitors (tick mark) and lack of inhibition (cross) is indicated at the right edge. The expression of all ATGL variants was confirmed by Western blotting analysis (Figure S6). (b) Dose-dependent inhibition of human ATGL (aa 1–288) and c1 (human aa 1–158 and mouse aa 159–288) by NG-497. (c) Dose-dependent inhibition of mouse ATGL (aa 1–288) and c2 (mouse aa 1–158 and human aa 159–288) by Ai. IC50 values are shown in the insets. Data are presented as relative inhibition of respective DMSO controls and are indicated as mean ± SD. (d) 3D homology model of the minimal active domain of mouse ATGL (M1–L254) depicted as a cartoon. Residues 1–178 are in blue, and residues 179–254 are in gray. S47 and D166 comprising the active site are represented as green sticks. T101, C106, R109, N111, and S133 are colored in orange, A60, N68, I69, T93, C97, and T146 are colored in magenta. TEXT PRINTED IN THE PICTURE: (b) NG-497: IC50 [μM] (human): 1.3±0.1; IC50 [μM] (c1): 1.3±0.1 | (b) Ai: IC50 [μM] (human): n.det.; IC50 [μM] (c1): n.det. | (c) NG-497: IC50 [μM] (mouse): n.det.; IC50 [μM] (c2): n.det. | (c) Ai: IC50 [μM] (mouse): 2.5±0.3; IC50 [μM] (c2): 2.4±0.1 […]
(§2) The region between aa 60 and 146 of human and mouse ATGL comprises 12 nonidentical aa. We generated 3D homology models for the minimal active domain of mouse ATGL to obtain more detailed insight into the topology of the relevant region (Figure 5d). Based on this model, aa T101, C106, R109, N111, and S133 locate at peripheral (loop) regions (indicated in orange, Figure 5d). […] For all other nonidentical aa (indicated in magenta, Figure 5d), we generated variants with single aa substitutions. The humanized variants A60V, N68K, T93I, and C97F were inactivated by Ai but not NG-497 (Figure 5a).
(§3) Experimental details, materials, and methods
(§4) Expression of recombinant ATGL constructs and preparation of cell lysates. Expi293 cells were cultivated in Expi293 Expression Medium (GIBCO, Thermo Fisher Scientific, Waltham, USA) at standard conditions (37°C, 5% CO2, 95% humidified atmosphere, 125 rpm). DNA constructs containing ATGL from different species and chimeric ATGL variants in pcDNA3.1(+)myc-His C Vector were obtained from BioCat GmbH (Heidelberg, Germany). Cells were transfected with ExpiFectamine293 Transfection Kit (GIBCO) in Opti-Mem reduced serum medium (GIBCO) according to the manufacturer’s instructions. After 48 h, cells were harvested by centrifugation and washed three times with PBS. Cells were disrupted in buffer A (0.25 M sucrose, 1 mM EDTA, 1 mM dithiothreitol, 20µg/ml leupeptin, 2 µg/ml antipain, 1 µg/ml pepstatin, pH 7.0) by sonication (Virsonic 475, Virtis, Gardiner, USA). Nuclei and debris were removed by centrifugation at 1,000 g and 4°C for 10 min. Protein concentrations were determined using Bio-Rad protein assay (Bio-Rad 785, Bio-Rad Laboratories, Munich, Germany) using BSA as standard.
(§5) Expression and purification of mouse CGI-58. CGI-58 was expressed and purified as described 1. In brief, the coding sequence of mouse Cgi-58 was cloned into pHis-Sumo and co-transformed with the plasmid pTf16 expressing the chaperone Tig into E. coli BL21(DE3). Cells were cultured overnight at 37°C and 180 rpm in the presence of 40 µg/ml kanamycin and 34 µg/ml chloramphenicol. Thereafter, cells were transferred into fresh LB medium, grown until OD600 of 0.6, and expression was induced by the addition of 0.5 mM IPTG. After overnight incubation at 30°C, cells were harvested at 4,500 x g and 4°C for 20 min, […]

mouse ATGL T93I = target: T2, mouse ATGL T93I (Mus musculus, UniProt Q8BJ56, T93I); settings: variant T93I, NG-497 (10 μM) or Atglistatin (10 μM)
T2 construct: host or cells: Expi293 cells, cell lysate
Protocol: as §1, §2, §3, §4, §5

mouse ATGL C97F = target: T3, mouse ATGL C97F (Mus musculus, UniProt Q8BJ56, C97F); settings: variant C97F, NG-497 (10 μM) or Atglistatin (10 μM)
T3 construct: host or cells: Expi293 cells, cell lysate
Protocol: as §1, §2, §3, §4, §5

mouse ATGL A60V = target: T4, mouse ATGL A60V (Mus musculus, UniProt Q8BJ56, A60V); settings: variant A60V, NG-497 (10 μM) or Atglistatin (10 μM)
T4 construct: host or cells: Expi293 cells, cell lysate
Protocol: as §1, §2, §3, §4, §5

Measured: inhibition of TAG hydrolase activity

T2 sequence (Q8BJ56 whole entry T93I): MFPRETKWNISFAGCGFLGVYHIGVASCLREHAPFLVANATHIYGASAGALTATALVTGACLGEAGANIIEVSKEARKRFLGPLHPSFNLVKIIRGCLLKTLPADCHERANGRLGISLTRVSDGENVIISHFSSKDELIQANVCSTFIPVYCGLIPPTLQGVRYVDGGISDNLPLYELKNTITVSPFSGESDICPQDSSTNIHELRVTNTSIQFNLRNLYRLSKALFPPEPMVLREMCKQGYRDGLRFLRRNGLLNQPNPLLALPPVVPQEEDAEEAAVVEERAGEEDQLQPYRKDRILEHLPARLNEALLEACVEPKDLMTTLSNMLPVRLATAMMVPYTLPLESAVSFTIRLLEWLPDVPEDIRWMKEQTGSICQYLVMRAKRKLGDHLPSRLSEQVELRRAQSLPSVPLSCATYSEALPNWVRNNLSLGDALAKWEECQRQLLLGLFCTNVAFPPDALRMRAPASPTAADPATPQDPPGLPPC
T3 sequence (Q8BJ56 whole entry C97F): as the sequence (Q8BJ56 whole entry T93I) above, with I93T, C97F counted along it
T1 sequence (Q8BJ56 whole entry N68K): as the sequence (Q8BJ56 whole entry T93I) above, with N68K, I93T counted along it
T4 sequence (Q8BJ56 whole entry A60V): as the sequence (Q8BJ56 whole entry T93I) above, with A60V, I93T counted along it

CN(C)C(=O)Nc1cccc(-c2ccc(N(C)C)cc2)c1 [Atglistatin, reference compound]
inactivated: all assays above
